This passage reports minimal effective concentration and DiMf/DiL4 results from patent US11771738B2 (Zoetis Services LLC, priority 2018, dated 2023).

The structures appear in SMILES notation. Read-outs that look alike come from different tables or passages of the source. Some results are limits rather than exact numbers.

Type in all cases: cell-based
Experiment [1] deals with D. immitis L4 larvae. Put plainly: Dirofilaria immitis, L4 Stage (DiL4) In Vitro Assay. Conditions: for minimal effective concentration: Dirofilaria immitis, 72 h, read-out: DiL4 MED, Minimum Effective Dose, D. immitis L4 larvae motility, in vitro; for DiMf/DiL4: larval stage selectivity, ratio of DiMf MED to DiL4 MED.
For experiment [2], the system named is third stage larvae of Haemonchus contortus. Put plainly: Haemonchus contortus, Larvae Stage 3 (HcL3) In Vitro Assay. Conditions: Haemonchus contortus, 96 h.
Experiment [3] concerns microfilariae of Dirofilaria immitis. Put plainly: Dirofilaria immitis, Microfilaria (DiMf) In Vitro Assay. The following applies: Dirofilaria immitis, 72 h, read-out: DiMf MED, Minimum Effective Dose, D. immitis microfilariae motility, in vitro.
Where [4] appears, read: read-out: HcL3 MED, Minimum Effective Dose, H. contortus third stage larvae, approximately 96 hours.
Where [5] appears, read: read-out: HcL3 MED, Haemonchus contortus third stage larvae in vitro, class mark appended to the Ex # in Table 3.
The mark [6] stands for this setting: read-out: HcL3 MED, approximately 96 hours incubation, multiple-resistant field isolate.
Setting [7] is: read-out: HcL3 MED (symbol after Ex#), approximately 96 hours incubation, multiple-resistant field isolate.

Turning to `COc1nc(C)c(Cc2ccc(C[C@H]3OC(=O)[C@H](CC(C)C)N(C)C(=O)[C@@H](C)OC(=O)[C@H](CC(C)C)N(C)C(=O)[C@@H](Cc4ccc(Cc5sc(OC)nc5C)cc4)OC(=O)[C@H](CC(C)C)N(C)C(=O)[C@@H](C)OC(=O)[C@H](CC(C)C)N(C)C3=O)cc2)s1` [Example 3-209, (3S,6R,9S,12R,15S,18R,21S,24R)-3,9,15,21-tetraisobutyl-6,18-bis(4-((2-methoxy-4-methylthiazol-5-yl)methyl)benzyl)-4,10,12,16,22,24-hexamethyl-1,7,13,19-tetraoxa-4,10,16,22-tetraazacyclotetracosan-2,5,8,11,14,17,20,23-octaone], the minimal effective concentration in experiment [1] was 0.0005 µM; in experiment [2] (setting [4]), > 100 µM; in experiment [3] it was 0.01 µM. Besides, the DiMf/DiL4 in experiment [1] is 20.
In the case of `Cc1ncncc1Cc1ccc(C[C@H]2OC(=O)[C@H](CC(C)C)N(C)C(=O)[C@@H](C)OC(=O)[C@H](CC(C)C)N(C)C(=O)[C@@H](Cc3ccc(Cc4cncnc4C)cc3)OC(=O)[C@H](CC(C)C)N(C)C(=O)[C@@H](C)OC(=O)[C@H](CC(C)C)N(C)C2=O)cc1` [Example 3-294, (3S,6R,9S,12R,15S,18R,21S,24R)-3,9,15,21-tetraisobutyl-4,6,10,16,18,22-hexamethyl-12,24-bis(4-((4-methylpyrimidin-5-yl)methyl)benzyl)-1,7,13,19-tetraoxa-4,10,16,22-tetraazacyclotetracosan-2,5,8,11,14,17,20,23-octaone], the minimal effective concentration in experiment [1] was 0.0001 µM; in experiment [2] (setting [5]), < 1 µM; in experiment [2] (setting [4]), 1 µM; in experiment [2] (setting [6]), ≤ 1 µM; in experiment [3], 0.0001 µM. Also, in experiment [1], the DiMf/DiL4 is 1.
With `CC(C)C[C@H]1C(=O)O[C@H](Cc2ccc(C(O)c3coc4ccccc34)cc2)C(=O)N(C)[C@@H](CC(C)C)C(=O)O[C@H](C)C(=O)N(C)[C@@H](CC(C)C)C(=O)O[C@H](Cc2ccccc2)C(=O)N(C)[C@@H](CC(C)C)C(=O)O[C@H](C)C(=O)N1C` (stereo partly drawn) [Example 4-21, (3S,6R,9S,12R,15S,18R,21S,24R)-6-(4-(benzofuran-3-yl(hydroxy)methyl)benzyl)-18-benzyl-3,9,15,21-tetraisobutyl-4,10,12,16,22,24-hexamethyl-1,7,13,19-tetraoxa-4,10,16,22-tetraazacyclotetracosan-2,5,8,11,14,17,20,23-octaone], the minimal effective concentration is 0.001 µM in experiment [1], > 10 µM in experiment [2] (setting [4]) and 0.05 µM in experiment [3]. Also, the DiMf/DiL4 in experiment [1] is recorded as 50.
As to `CC(C)C[C@H]1C(=O)O[C@H](Cc2ccc(Cc3sccc3Cl)cc2)C(=O)N(C)[C@@H](CC(C)C)C(=O)O[C@H](C)C(=O)N(C)[C@@H](CC(C)C)C(=O)O[C@H](Cc2ccccc2)C(=O)N(C)[C@@H](CC(C)C)C(=O)O[C@H](C)C(=O)N1C` [Example 4-75, (3S,6R,9S,12R,15S,18R,21S,24R)-6-benzyl-18-(4-((3-chlorothiophen-2-yl)methyl)benzyl)-3,9,15,21-tetraisobutyl-4,10,12,16,22,24-hexamethyl-1,7,13,19-tetraoxa-4,10,16,22-tetraazacyclotetracosan-2,5,8,11,14,17,20,23-octaone], the minimal effective concentration in experiment [1] is 0.0005 µM; in experiment [2] (setting [7]) it was < 1 µM; in experiment [2] (setting [4]) it was 1 µM; in experiment [2] (setting [6]), ≤ 1 µM; in experiment [3], 0.01 µM. Besides, the DiMf/DiL4 in experiment [1] was 20.
Turning to `Cc1cc(F)ncc1Cc1ccc(C[C@H]2OC(=O)[C@H](CC(C)C)N(C)C(=O)[C@@H](C)OC(=O)[C@H](CC(C)C)N(C)C(=O)[C@@H](Cc3ccc(Cc4cnc(F)cc4C)cc3)OC(=O)[C@H](CC(C)C)N(C)C(=O)[C@@H](C)OC(=O)[C@H](CC(C)C)N(C)C2=O)cc1` [Example 3-322, (3S,6R,9S,12R,15S,18R,21S,24R)-6,18-bis(4-((6-fluoro-4-methylpyridin-3-yl)methyl)benzyl)-3,9,15,21-tetraisobutyl-4,10,12,16,22,24-hexamethyl-1,7,13,19-tetraoxa-4,10,16,22-tetraazacyclotetracosan-2,5,8,11,14,17,20,23-octaone], the values for the minimal effective concentration in experiment [1], in experiment [2] (setting [4]) and in experiment [3] were 0.0003 µM, 10 µM and 0.01 µM, respectively. For the same compound, the DiMf/DiL4 in experiment [1] is recorded as 33.3.
For the compound `Cc1noc(C)c1Cc1ccc(C[C@H]2OC(=O)[C@H](CC(C)C)N(C)C(=O)[C@@H](C)OC(=O)[C@H](CC(C)C)N(C)C(=O)[C@@H](Cc3ccc(Cc4c(C)noc4C)cc3)OC(=O)[C@H](CC(C)C)N(C)C(=O)[C@@H](C)OC(=O)[C@H](CC(C)C)N(C)C2=O)cc1` [Example 3-21, (3S,6R,9S,12R,15S,18R,21S,24R)-6,18-bis(4-((3,5-dimethylisoxazol-4-yl)methyl)benzyl)-3,9,15,21-tetraisobutyl-4,10,12,16,22,24-hexamethyl-1,7,13,19-tetraoxa-4,10,16,22-tetraazacyclotetracosan-2,5,8,11,14,17,20,23-octaone], the minimal effective concentration in experiment [1] is < 3e-05 µM; in experiment [2] (setting [5]), < 1 µM; in experiment [2] (setting [4]) it was 0.3 µM; in experiment [2] (setting [6]), ≤ 1 µM; in experiment [3], 0.0001 µM. For the same compound, the DiMf/DiL4 in experiment [1] was >3.3.
For `CCN(CC)C(c1ccc(C[C@H]2OC(=O)[C@H](CC(C)C)N(C)C(=O)[C@@H](C)OC(=O)[C@H](CC(C)C)N(C)C(=O)[C@@H](Cc3ccccc3)OC(=O)[C@H](CC(C)C)N(C)C(=O)[C@@H](C)OC(=O)[C@H](CC(C)C)N(C)C2=O)cc1)c1ccc(F)c(F)c1` (stereo partly drawn) [Example 2-36, (3S,6R,9S,12R,15S,18R,21S,24R)-6-benzyl-18-(4-((diethylamino)(3,4-difluorophenyl)methyl)benzyl)-3,9,15,21-tetraisobutyl-4,10,12,16,22,24-hexamethyl-1,7,13,19-tetraoxa-4,10,16,22-tetraazacyclotetracosan-2,5,8,11,14,17,20,23-octaone], the values for the minimal effective concentration in experiment [1], in experiment [2] (setting [4]) and in experiment [3] were 0.0002 µM, 1 µM and 0.03 µM, respectively. For the same compound, the DiMf/DiL4 in experiment [1] stood at 150.
In the case of `CC(C)C[C@H]1C(=O)O[C@H](Cc2ccc(Cc3cncnc3C(F)F)cc2)C(=O)N(C)[C@@H](CC(C)C)C(=O)O[C@H](C)C(=O)N(C)[C@@H](CC(C)C)C(=O)O[C@H](Cc2ccc(Cc3cncnc3C(F)F)cc2)C(=O)N(C)[C@@H](CC(C)C)C(=O)O[C@H](C)C(=O)N1C` [Example 3-321, (3S,6R,9S,12R,15S,18R,21S,24R)-6,18-bis(4-((4-(difluoromethyl)pyrimidin-5-yl)methyl)benzyl)-3,9,15,21-tetraisobutyl-4,10,12,16,22,24-hexamethyl-1,7,13,19-tetraoxa-4,10,16,22-tetraazacyclotetracosan-2,5,8,11,14,17,20,23-octaone], the minimal effective concentration was 2e-05 µM in experiment [1]; < 1 µM in experiment [2] (setting [5]); 0.3 µM in experiment [2] (setting [4]); ≤ 1 µM in experiment [2] (setting [6]); 5e-05 µM in experiment [3]. Moreover, the DiMf/DiL4 in experiment [1] came to 2.5.
For the compound `CC(C)C[C@H]1C(=O)O[C@H](Cc2ccc(Cc3cnsc3)cc2)C(=O)N(C)[C@@H](CC(C)C)C(=O)O[C@H](C)C(=O)N(C)[C@@H](CC(C)C)C(=O)O[C@H](Cc2ccc(Cc3cnsc3)cc2)C(=O)N(C)[C@@H](CC(C)C)C(=O)O[C@H](C)C(=O)N1C` [Example 3-254, (3S,6R,9S,12R,15S,18R,21S,24R)-3,9,15,21-tetraisobutyl-6,18-bis(4-(isothiazol-4-ylmethyl)benzyl)-4,10,12,16,22,24-hexamethyl-1,7,13,19-tetraoxa-4,10,16,22-tetraazacyclotetracosan-2,5,8,11,14,17,20,23-octaone], the minimal effective concentration in experiment [1] came out at 0.001 µM; in experiment [2] (setting [4]), 10 µM; in experiment [3] it was 0.003 µM. Besides, the DiMf/DiL4 in experiment [1] is 3.
Turning to `CC(C)C[C@H]1C(=O)O[C@H](Cc2ccc(Cc3ccsc3)cc2)C(=O)N(C)[C@@H](CC(C)C)C(=O)O[C@H](C)C(=O)N(C)[C@@H](CC(C)C)C(=O)O[C@H](Cc2ccccc2)C(=O)N(C)[C@@H](CC(C)C)C(=O)O[C@H](C)C(=O)N1C` [Example 4-50, (3S,6R,9S,12R,15S,18R,21S,24R)-6-benzyl-3,9,15,21-tetraisobutyl-4,10,12,16,22,24-hexamethyl-18-(4-(thiophen-3-ylmethyl)benzyl)-1,7,13,19-tetraoxa-4,10,16,22-tetraazacyclotetracosan-2,5,8,11,14,17,20,23-octaone], the minimal effective concentration was 0.001 µM in experiment [1], 1 to 3.3 µM in experiment [2] (setting [7]), 1.8 µM in experiment [2] (setting [4]) and 0.01 µM in experiment [3]. Besides, the DiMf/DiL4 in experiment [1] amounted to 10.
For `CC(C)C[C@H]1C(=O)O[C@H](Cc2ccc(C(c3ccc(F)c(F)c3)n3cccn3)cc2)C(=O)N(C)[C@@H](CC(C)C)C(=O)O[C@H](C)C(=O)N(C)[C@@H](CC(C)C)C(=O)O[C@H](Cc2ccc(C(c3ccc(F)c(F)c3)n3cccn3)cc2)C(=O)N(C)[C@@H](CC(C)C)C(=O)O[C@H](C)C(=O)N1C` (stereo partly drawn) [Example 1-18, (3S,6R,9S,12R,15S,18R,21S,24R)-6,18-bis(4-((3,4-difluorophenyl)(1H-pyrazol-1-yl)methyl)benzyl)-3,9,15,21-tetraisobutyl-4,10,12,16,22,24-hexamethyl-1,7,13,19-tetraoxa-4,10,16,22-tetraazacyclotetracosan-2,5,8,11,14,17,20,23-octaone], the figures for the minimal effective concentration in experiment [1], in experiment [2] (setting [4]) and in experiment [3] were < 0.0001 µM, > 100 µM and 0.003 µM, respectively. Also, the DiMf/DiL4 in experiment [1] is given as >30.
